Reference: ChEMBL document CHEMBL1128330, “Anti-human immunodeficiency virus and anti-hepatitis-B virus activities and toxicities of the enantiomers of 2'-deoxy-3'-oxa-4'-thiocytidine and their 5-fluoro analogues in vitro” (J Med Chem, 1995)
pIC50: −log10 of the molar value.

Tests used:
Settings in all cases: Homo sapiens
CCRF-CEM [1] = experiment: Inhibitory concentration against HIV-1 infected CEM cell lines; type: functional, cell-based
CCRF-CEM [2] = experiment: Cytotoxic concentration against HIV-1 infected CEM cell lines; type: functional
[3] = Drug concentration which inhibits 50% of growth of cord blood mononuclear cells (CBMCs); type: functional
H9 [4] = experiment: Cytotoxic concentration against HIV-1 infected H9 cell lines; type: functional
H9 [5] = experiment: Inhibitory concentration against HIV-1 infected H9 cell lines; type: functional, cell-based
Jurkat [6] = experiment: Cytotoxic concentration against HIV-1 infected Jurkat cell lines; type: functional
MT4 [7] = experiment: Cytotoxic concentration against HIV-1 infected MT-4 cell lines; type: functional
U-937 [8] = experiment: Cytotoxic concentration against HIV-1 infected U937 cell lines; type: functional
U-937 [9] = experiment: Inhibitory concentration against HIV-1 infected U937 cell lines; type: functional, cell-based
Jurkat [10] = experiment: Inhibitory concentration against HIV-1 infected Jurkat cell lines; type: functional, cell-based
MT4 [11] = experiment: Inhibitory concentration against HIV-1 infected MT-4 cell lines; type: functional, cell-based

**Q.** What does the source list for Cc1cn([C@H]2C[C@H](N=[N+]=[N-])[C@@H](CO)O2)c(=O)[nH]c1=O [ZIDOVUDINE]?
**A.** pIC50 (CCRF-CEM [1]): 8.00; CC50 (CCRF-CEM [2]): 500 µM; CC50 [3]: 45 µM; CC50 (H9 [4]): 200 µM; pIC50 (H9 [5]): 7.15; CC50 (Jurkat [6]): > 500 µM; CC50 (MT4 [7]): 110 µM; CC50 (U-937 [8]): 110 µM; pIC50 (U-937 [9]): 7.40; pIC50 (Jurkat [10]): 8.00; pIC50 (MT4 [11]): 8.30
